We go through 3 compounds from US20120190648A1, “FLUORINATED CYCLOPROPANE ANALOGS OF GLUTAMIC ACID” (priority 2009, published 2012).

In this assay the target is mGlu4 receptor (Rattus norvegicus, UniProt P31423). As to the kind of experiment: mGlu4 receptor test at different doses (1 nM to 1 mM) to determine EC50. Type of assay: cell-based. The method, then: The compounds according to the invention have been tested on the mGlu4 receptor at different doses (between 1 nM and 1 mM) in order to determine their EC50 value. This test has been carried out according to the protocol described in: C. Selvam, C. Goudet, N. Oueslati, J.-P. Pin, F. Acher J. Med. Chem. 2007, 50, 4656-4664.

Like-named read-outs stand apart in the source and are kept apart here.

Chain of mGlu4 receptor (P31423 33-912): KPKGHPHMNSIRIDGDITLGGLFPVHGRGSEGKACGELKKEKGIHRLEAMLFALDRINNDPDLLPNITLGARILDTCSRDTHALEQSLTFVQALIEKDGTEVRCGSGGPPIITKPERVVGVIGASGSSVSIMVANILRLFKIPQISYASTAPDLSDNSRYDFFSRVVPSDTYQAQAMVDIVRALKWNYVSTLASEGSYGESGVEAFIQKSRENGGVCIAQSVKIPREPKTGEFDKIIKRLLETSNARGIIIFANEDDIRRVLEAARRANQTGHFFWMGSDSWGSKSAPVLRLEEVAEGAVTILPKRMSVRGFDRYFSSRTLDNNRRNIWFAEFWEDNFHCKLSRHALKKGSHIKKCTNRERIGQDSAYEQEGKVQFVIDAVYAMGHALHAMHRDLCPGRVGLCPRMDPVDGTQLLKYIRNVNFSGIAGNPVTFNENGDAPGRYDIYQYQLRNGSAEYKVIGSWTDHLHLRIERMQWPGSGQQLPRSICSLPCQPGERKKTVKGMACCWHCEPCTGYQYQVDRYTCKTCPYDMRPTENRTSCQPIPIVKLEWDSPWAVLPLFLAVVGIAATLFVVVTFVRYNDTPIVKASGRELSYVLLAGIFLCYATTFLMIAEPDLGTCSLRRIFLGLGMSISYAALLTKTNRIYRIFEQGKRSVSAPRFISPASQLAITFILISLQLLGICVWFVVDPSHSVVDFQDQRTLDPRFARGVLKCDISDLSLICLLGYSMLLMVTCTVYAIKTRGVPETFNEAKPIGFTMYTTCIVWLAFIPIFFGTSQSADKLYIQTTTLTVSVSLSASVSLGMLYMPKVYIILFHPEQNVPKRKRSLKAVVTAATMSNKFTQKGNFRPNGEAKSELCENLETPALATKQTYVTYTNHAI

For orientation: EC50 means the midpoint of the concentration-response curve. Regarding `NC1(C(=O)O)CC1(F)CS(=O)(=O)O` (racemic) [cis-I-6], the EC50 (mGlu4 receptor, doses between 1 nM and 1 mM, protocol of Selvam et al. J. Med. Chem. 2007, 50, 4656-4664, read-out: EC50) is 85.6 µM.
Take `N[C@]1(C(=O)O)C[C@@]1(F)C(O)P(=O)(O)O` (mixture of isomers) [cis-I-3]: the concentration for a half-maximal effect (EC50) was found to be 27.4 µM.
For `NC1(C(=O)O)CC1(F)CP(=O)(O)O` (racemic) [cis-I-4], a half-maximal response (EC50) required 0.34 µM.
